Measured values reported in patent US4113858A, “Novel compounds, compositions and methods of their use” (St. Luke's Hospital, priority 1976, dated 1978).
Where two headings read alike, the source gives them in different places. Ends that are not written are not given here.

How the values were obtained:
Guinea Pigs [1] = assay: Non-encephalitogenic properties of Compound V, disease index (Table II); assay type: in vivo
Description: A number of guinea pigs are divided into equal groups I, II, III, IV, V, VI and VII. Each of groups I, II, III and IV are given a single subcutaneous administration of the compound (V) (formula: H -- Phe -- Ser -- Trp -- Gln -- Lys )4 Gly -- OH) prepared according to Example 1. supra. The dose administered, in Complete Freund's adjuvant and the disease index (number of animals showing disease symptons/number tested) obtained after 30 and 120 days, respectfully, are given in Table II below. Groups, V, VI and VII serve as controls. Group V received a single administration of the myelin basic protein (BP), group VI received a single administration of peptide E (E), the encephalitogenic region derived from the encephalitogenic basic protein. Group VII received a single administration of Complete Freund's adjuvant alone.
The figures show the number of diseased guinea pigs per number tested. The disease index for experimental allergic encephalomyelitis (EAE) is reported in terms of clinical and histophathological criteria by day 30 following sensitization.

Guinea Pigs [2] = assay: Specificity of delayed type skin hypersensitivity response (Table III); assay type: in vivo
Description: Guinea pigs are sensitized (10 animals/group) with 500 μg each of compound (V) (prepared according to Example 1, supra.), myelin basic protein (BP), the alpha -1 component of calf skin (α1 -- calf) and the alpha -1 component of guinea pig collagen (α1 -- g.p.), emulsified in complete Freund's adjuvant. At day 11 after sensitization, the animals were skin tested with various doses of the specific antigens dissolved in saline. Positive responses are indicated by erythema at the skin test site. A control group is administered saline.

Guinea Pigs [3] = assay: Delayed type skin hypersensitivity response (Table IV); assay type: in vivo; conditions: carrier CFA, IFA or saline; response dose related
Description: Guinea pigs are sensitized (10 animals/group) with varying doses of the compound (V) (prepared according to Example 1, supra.) administered subcutaneously in Complete Freund's adjuvant, incomplete Freund's adjuvant and saline. At various times following this administration, the animals were skin tested with various doses of compound (V) in saline.
The extent of the DTH response is dose related. Compound (V) induces DTH response regardless of whether the carrier is Complete Freund's adjuvant (CFA), incomplete Freund's adjuvant (IFA) or physiological saline (saline). The values shown are the average skin response of 10 animals in each group. The numbers shown are measurements of the cross-sectional diameters of the erythematous area recorded at 24 hours following the skin test.

Guinea Pigs [4] = assay: Challenge with Compound V in Freund's complete adjuvant (Table VII, groups 1-3); assay type: in vivo; conditions: no treatment
Guinea Pigs [5] = tested on: Guinea Pigs
[6] = Group 1: challenge 25 μg in FCA
[7] = Group 2: challenge 100 μg in FCA
[8] = Group 3: challenge 5,000 μg in FCA
[9] = Group 9: challenge 150 μg BP, 4.0 mg daily, started second day after onset of hind leg paralysis

In the case of “FSWQKFSWQKFSWQKFSWQKG [Compound V, H -- Phe -- Ser -- Trp -- Gln -- Lys]4 Gly -- OH]”, the “Disease Index” value (Guinea Pigs [1]; Day 30, 0.005 mg antigen in CFA, single s.c.) is reported as 0/10, the “Disease Index” value (Guinea Pigs [1]; Day 30, 0.025 mg antigen in CFA, single administration) is reported as 0/15 and the “Disease Index” value (Guinea Pigs [1]; Day 30, 0.100 mg antigen in CFA, single s.c.) is reported as 0/20. The “Disease Index” value (Guinea Pigs [1]; Day 30, 0.500 mg antigen in CFA, single s.c., diseased/tested) was 0/10, the “Disease Index” value (Guinea Pigs [1]; Day 120, 0.100 mg antigen in CFA) was 0/10 and the “Disease Index” value (Guinea Pigs [1]; Day 120, 0.500 mg antigen in CFA) was 0/10. The “delayed skin response elicited” value (Guinea Pigs [2]; in animals sensitized with compound V or BP) was “positive delayed skin responses”, the “delayed skin response elicited” value (Guinea Pigs [2]; in animals sensitized with the α1-calf or α1-g.p. component of skin collagen) was “negative skin responses” and the “antigenicity / induction of delayed type hypersensitivity (DTH)” value (Guinea Pigs [3]) was “antigenic and induces delayed type hypersensitivity (DTH)”. The “Clinical EAE” value (Guinea Pigs [4]; [6]) was 0/15, the “Histological EAE” value (Guinea Pigs [4]; [6]) was 0/15 and the “Clinical EAE” value (Guinea Pigs [4]; [7]) was 0/10. For the same sequence, the “Histological EAE” value (Guinea Pigs [4]; [7]) was 0/15, the “Clinical EAE” value (Guinea Pigs [4]; [8]) was 0/10 and the “Histological EAE” value (Guinea Pigs [4]; [8]) was 0/10. For the same sequence, the “Clinical EAE” value (Guinea Pigs [5]; Group 4: challenge 100 μg BP in FCA, 1 mg daily s.c. in FIA day 8 through day 17) was 2/4, the “Clinical EAE” value (Guinea Pigs [5]; Group 4: challenge 100 μg BP in FCA, 1 mg daily s.c. in FIA day 8 through day 17, listed as compound (V)) was “significantly reduced the incidence of disease” and the “Reversal clinical EAE” value (Guinea Pigs [5]; Group 4: challenge 100 μg BP, 1 mg daily s.c. in FIA day 8 through day 17) was 2/4. For the same sequence, the “Histological EAE” value (Guinea Pigs [5]; Group 4: challenge 100 μg BP, 1 mg daily s.c. in FIA day 8 through day 17, day 32) was 2/4, the “Histological EAE” value (Guinea Pigs [5]; Group 6: challenge 150 μg BP, 2.5 mg daily for 10 days from hind leg paralysis, day 32) was 2/5 and the “Histological EAE” value (Guinea Pigs [5]; Group 6: challenge 150 μg BP, 2.5 mg daily for 10 days from hind leg paralysis, day 32, listed as compound (V)) was 2 out of 5. For the same sequence, the “Reversal clinical EAE” value (Guinea Pigs [5]; Group 6: challenge 150 μg BP, 2.5 mg daily for 10 days from the day hind leg paralysis is observed) was 5/5, the “Clinical EAE” value (Guinea Pigs [5]; Group 6: challenge 150 μg BP, 2.5 mg daily s.c. in FIA for 10 days from the day hind leg paralysis is observed) was 5/5 and the “guinea pigs that died without evidence of improvement” value (Guinea Pigs [5]; Group 9, after the second treatment) was “one of seven”. For the same sequence, the “Clinical EAE” value (Guinea Pigs [5]; [9]) was 7/7, the “Histological EAE” value (Guinea Pigs [5]; [9]) was 4/7 and the “Reversal clinical EAE” value (Guinea Pigs [5]; [9]) was 6/7.
